Tests used:
isolated mouse hearts = test: Coronary flow in isolated perfused mouse hearts (Langendorff)
Protocol: Hearts and aortas were removed from NIH Swiss mice anesthetized with sodium nembutal, and coronary flow was measured in the hearts using a Langendorff preparation (FIG. 5a) and relaxation of aortic rings was measured after inducing constriction of the rings with prostaglandin F2α (FIG. 5b). The hearts and aortic rings were treated with a range of concentrations of NO-Cbi (filled circles), nitroglycerin (open circles, dotted line, FIG. 5a), and sodium nitroprusside (open circles, FIG. 5b). Coronary flow was measured on the same hearts for both NO-Cbi and nitroglycerin after an appropriate wash-out period between drugs, and aortic ring relaxation was measured on two rings from the same aorta for NO-Cbi and sodium nitroprusside. The data are the mean of two independent experiments performed on two separate hearts in each experiment (FIG. 5a), and the mean±SEM of two independent experiments performed on three separate aortic rings in each experiment (FIG. 5b).
Coronary flow was measured in isolated perfused mouse hearts in a Langendorff system, and was 10.8±0.5 ml/min/g wet weight (n=7 hearts) under basal conditions. […] The latter value is similar to maximal coronary flow of 24.6±1.8 ml/min/g wet weight obtained with 62 μM adenosine. For nitroglycerin to increase coronary flow to that of NO-Cbi, the nitroglycerin concentration had to be increased to 770 μM, or about 100-fold greater than the NO-Cbi concentration (FIG. 5a).

mice = format: in vivo, mouse; details: for effect on blood pressure (controls) / effect on heart rate (controls): intraperitoneally, 8 mM Cbi(II) shown
Protocol: Mice were anesthetized with 1.5% isoflurane gas, and after achieving a stable blood pressure and pulse (about 10 minutes), they were injected intraperitoneally with 100 μl of […] 8 mM Cbi(II) (open circles, solid line), 8 mM NO-Cbi (filled circles, dashed line), or 8 mM nitroglycerin (squares, dotted lines) (panels a and b). Control refers to anesthetized mice who received 100 μl water (triangles, solid line). In panel C, 100 μl of 6 mM NO-Cbi was injected at 0, 32, and 64 minutes as indicated by the arrows. Systolic and diastolic blood pressures, and pulse rate, were measured at the indicated times on the tail artery using a non-invasive tail cuff. The percent change in mean arterial pressure (A and C), and pulse rate (B and C) are shown. For panels A and B, data are the mean±SD of results from five mice for NO-Cbi studied on separate days, and four mice for the other conditions. […] Data in panel C are the mean±SD of results from three mice studied on different days.
Pulse, and systolic and diastolic blood pressures, were measured non-invasively in the tail artery of mice by restraining mice on a warming platform maintained at ˜38° C. The base of the tail was placed in a computer-controlled pneumatic cuff, and the distal tail was placed in a sensor assembly consisting of a light emitting diode and a photodiode detector. Baseline measurements were made with the mice awake in a dark chamber. The mice were then anesthetized with 3% isoflurane in an induction chamber, and returned to the platform where they received 1.5% isoflurane with 2 liter per minute of oxygen via a nose cone; the isoflurane caused a small, but stable, drop in blood pressure. Drugs in a volume of 100 ul were injected intraperitoneally into the mice, and pulse and blood pressure were measured every 5-15 minute, taking five readings at each time point.
To determine the effect of NO release from NO-Cbi in an intact mammal, blood pressure and pulse of mice injected intraperitoneally with NO-Cbi were measured.

rabbits = test: Rabbits with phenylephrine-induced hypertension; format: in vivo, rabbit; details: phenylephrine 5 to 20 μg/kg/min continuous intravenous infusion
Protocol: Phenylephrine was given by continuous intravenous infusion to an anesthetized rabbit at increasing rates from 5 to 20 μg/kg/min; the rabbit remained on the highest phenylephrine infusion rate until the end of the experiment (darker arrows with “A”-shaped arrowheads indicate start times of each increasing dose). At 49 minutes, an infusion of NO-Cbi was started at a rate of 3 μg/kg/min (2.9 nmol/kg/min), with the infusion rate doubled at 58 minutes (lighter arrows with triangular-shaped arrowheads indicate start times of infusions). Systolic and diastolic blood pressure recordings from an intra-arterial catheter are shown. Changes in total hemoglobin, oxyhemoglobin, and deoxyhemoglobin concentrations were measured by continuous wave near-infrared spectroscopy over the left thigh muscle. Phenylephrine caused a progressive decrease in total hemoglobin and oxyhemoglobin concentrations, which reversed within seconds of starting the NO-Cbi infusion.
Decreased tissue oxygenation as occurred in the experiments shown in FIGS. 7 and 8 would clearly be an undesirable effect of treating hypertensive patients with NO-Cbi. However, lowering blood pressure of a hypertensive patient is very different from lowering blood pressure of a normotensive subject, and the experiments described in Example 15 rabbits with normal or low (due to anesthesia) blood pressure. To simulate a hypertensive state, the blood pressure of rabbits was raised using a continuous intravenous infusion of phenylephrine, a peripheral vasoconstrictor (FIG. 9). As the rabbit's blood pressure increased above normal, tissue perfusion and oxygenation decreased, as evidenced by a decrease in total hemoglobin and oxyhemoglobin concentrations in muscle.
Thus, in an animal with drug-induced hypertension, NO-Cbi improved tissue perfusion and oxygenation as it lowered blood pressure.

[1] = test system: CS-54 rat vascular smooth muscle cells; details: added to CS-54 cells
Protocol: CS-54 rat vascular smooth muscle cells were treated with the indicated concentrations of NO-Cbi for 1 hour (A), or 10 μM NO-Cbi for the indicated times (B and C). […] (C) Cell extracts were clarified by centrifugation, and nitrite and nitrate in the extracts were measured by an enhanced Griess reagent method. In A and B, “Con” refers to control, which was cells treated with water. As indicated, the effects of 30 μM cobinamide (Cbi) and 100 μM 8-CPT-cGMP (cGMP) are shown for comparison. In A and B, similar results were obtained in two other experiments.
Nitrite and nitrate were measured in CS-54 cell extracts and fly extracts using a kit from Active Motif based on an enhanced Griess reagent, as described previously (Broderick K E et al. (2006) FASEB J. 20:1865-73).

[2] = test system: vasodilator-stimulated phosphoprotein (VASP) phosphorylated on Ser239 in CS-54 rat vascular smooth muscle cells; test: VASP phosphorylation in CS-54 cells (immunoblot); format: cell-based; details: added to CS-54 cells; 30 μM cobinamide shown
Protocol: CS-54 rat vascular smooth muscle cells were treated with the indicated concentrations of NO-Cbi for 1 hour (A), or 10 μM NO-Cbi for the indicated times (B and C). […] In A and B, “Con” refers to control, which was cells treated with water. As indicated, the effects of 30 μM cobinamide (Cbi) and 100 μM 8-CPT-cGMP (cGMP) are shown for comparison. In A and B, similar results were obtained in two other experiments.
Briefly, cells treated with an NO-releasing agent were extracted rapidly in a sodium dodecyl sulfate (SDS) containing sample buffer, and the cell extracts were subjected to SDS-polyacrylamide gel electrophoresis. Phospho-VASP was assessed by immunoblotting using an antibody specific for VASP phosphorylated on Ser259 (Smolenski A et al. (1998) J. Biol. Chem. 273:20029-35).
To determine if NO released from NO-Cbi can have a physiologic effect in cultured cells, vasodilator-stimulated phosphoprotein (VASP) phosphorylation was assessed in CS-54 cells.

[3] = test system: Malpighian tubules isolated from D. melanogaster; test: Malpighian tubule fluid secretion; set-up: species or system Drosophila melanogaster; details: 1 mM cobinamide or Cbi(II), 5 mM ascorbic acid, half-strength Schneider's medium
Protocol: Malpighian tubules are the osmoregulatory organs of D. melanogaster, corresponding to vertebrate kidneys. Tubular fluid secretion is stimulated by NO and cGMP, and fluid secretion rates were measured as described previously (Broderick K E et al. (2005) J. Biol. Chem. 280:8678-85). Briefly, the Malpighian tubule pair of a fly was resected and suspended in mineral oil. […]
Malpighian tubules are an excellent model for studying the effects of a drug on an intact organ system (Broderick K E et al. (2003) Am. J. Physiol. Cell Physiol. 285:C1207-18). […] Deta-NONOate may not be affected as much by cysteine in the medium, because it has a slower NO release rate and the intact drug can be transported intracellularly before much NO is released.

[4] = cited from earlier work
D. melanogaster = test: Viability of injected D. melanogaster; details: 1 μl injected; 1 mM (ascorbic acid 5 mM); observed 48 h
Protocol: (A) Tubular secretion rates of Malpighian tubules isolated from D. melanogaster were measured, using half-strength Schneider's medium. Basal tubular secretion was measured at 0, 10, and 20 minutes; at 20 minutes (depicted by the arrow) 1 mM cobinamide (Cbi, open circles), 1 mM NO-Cbi (filled circles), 0.5 mM Deta-NONOate (diamonds), or 100 μM 8-CPT-cGMP (inverted triangles) were added. Results are the mean±S.D. of three independent experiments performed on Malpighian tubule pairs from 10 flies. […] (B). Flies were injected with 1 μl of 1 mM cobinamide (Cbi, open circles), 1 mM NO-Cbi (filled circles), 0.5 mM Deta-NONOate (diamonds), or 1 mM spermine NONOate (squares). […] The data are plotted as a Kaplan-Meier survival curve, and are the mean±SD of three experiments, with 10 flies per condition per experiment. […] (C). Flies were injected with 1 μl of water (control, open bar), 1 mM cobinamide (Cbi, grey bar), or 1 mM NO-Cbi (black bars). Flies were killed and extracts were prepared at 3 hours for the water- and cobinamide-injected flies, and at the indicated times for the NO-Cbi-injected flies. Nitrite and nitrate in the extracts were measured using an enhanced Griess reagent.
The fluid volume of a fly is […], and thus, the injected agent was diluted about 10-fold. […]

Compound	effect on nitrite/nitrate levels (controls) [1]	effect on VASP phosphorylation (controls) [2]	effect on blood pressure (controls) (mice)	effect on heart rate (controls) (mice)	further results
O=[N+]([O-])OCC(CO[N+](=O)[O-])O[N+](=O)[O-] [nitroglycerin]					concentration relative to the NO-Cbi concentration for equal coronary flow (isolated mouse hearts): about 100 fold; coronary flow (isolated mouse hearts; 12.0 μM infused): 15.3±1.0 ml/min/g wet weight; increase of coronary flow (isolated mouse hearts; 12.0 μM infused): 34%; concentration needed to increase coronary flow to that of NO-Cbi (isolated mouse hearts; versus 7 μM NO-Cbi): 770 µM; systolic and diastolic blood pressure (mice; 0.8 μmol (100 μl of 8 mM) intraperitoneally, anesthetized mice): late decrease in blood pressure
CNC[C@H](O)c1cccc(O)c1 [phenylephrine, reference compound]					systolic and diastolic blood pressure (rabbits): increased the systolic and diastolic blood pressure; total hemoglobin and oxyhemoglobin in muscle (rabbits): decreased total hemoglobin and oxyhemoglobin in the muscle
C/C1=C2/[N-][C@H]([C@H](CC(N)=O)[C@@]2(C)CCC(=O)NC[C@@H](C)O)[C@]2(C)N=C(/C(C)=C3N=C(/C=C4N=C1[C@@H](CCC(N)=O)C\4(C)C)[C@@H](CCC(N)=O)[C@]\3(C)CC(N)=O)[C@@H](CCC(N)=O)[C@]2(C)CC(N)=O.[Co] [Cbi(II), reference compound]	Neither cobinamide, Cbi(II), or ascorbate had any effect	Neither cobinamide, Cbi(II), or ascorbate had any effect	no significant effect	no significant effect	effect on tubular secretion (controls) [3]: Neither cobinamide nor Cbi(II) significantly affected tubular secretion
NCCN(CCN)/[N+]([O-])=N/O [Deta-NONOate]					half-life [4]: ~50 h
O=C1O[C@H]([C@@H](O)CO)C(O)=C1O [ascorbate, ascorbic acid, reference compound]	Neither cobinamide, Cbi(II), or ascorbate had any effect	Neither cobinamide, Cbi(II), or ascorbate had any effect	no significant effect	no significant effect	
C/C1=C2/[N-][C@H]([C@H](CC(N)=O)[C@@]2(C)CCC(=O)NC[C@@H](C)O)[C@]2(C)N=C(/C(C)=C3N=C(/C=C4N=C1[C@@H](CCC(N)=O)C\4(C)C)[C@@H](CCC(N)=O)[C@]\3(C)CC(N)=O)[C@@H](CCC(N)=O)[C@]2(C)CC(N)=O.[Co+3] [cobinamide, reference compound]	Neither cobinamide, Cbi(II), or ascorbate had any effect	Neither cobinamide, Cbi(II), or ascorbate had any effect	no significant effect	no significant effect	fly killing / toxicity to flies (D. melanogaster): not toxic to flies; effect on tubular secretion (controls) [3]: Neither cobinamide nor Cbi(II) significantly affected tubular secretion
Nc1ncnc2c1ncn2[C@@H]1O[C@H](CO)[C@@H](O)[C@H]1O [adenosine]					maximal coronary flow (isolated mouse hearts; 62 μM): 24.6±1.8 ml/min/g wet weight
